Key:
[1] = biological target: Inhibitor of nuclear factor kappa-B kinase subunit beta (Homo sapiens) (UniProt O14920); assay: Inhibition of IKK-beta at 10 uM; conditions: values are per cent of control
[2] = biological target: Cyclin-dependent kinase 8 (Homo sapiens) (UniProt P49336); assay: Inhibition of CDK8 at 10 uM; values are per cent of control
[3] = biological target: Serine/threonine-protein kinase SIK1 (Homo sapiens) (UniProt P57059); assay: Inhibition of SIK at 10 uM; values are per cent of control
BaF3 = assay: Antiproliferative activity against mouse BAF3 cells expressing wild type Bcr-Abl; assay type: functional, cell-based
[4] = biological target: Serine/threonine-protein kinase Nek6 (Homo sapiens) (UniProt Q9HC98); assay: Inhibition of NEK6 at 10 uM
[5] = biological target: Cyclin-dependent kinase 3 (Homo sapiens) (UniProt Q00526); assay: Inhibition of CDK3 at 10 uM; values are per cent of control
[6] = biological target: Serine/threonine-protein kinase Nek3 (Homo sapiens) (UniProt P51956); assay: Inhibition of NEK3 at 10 uM
[7] = biological target: Dual specificity protein kinase TTK (Homo sapiens) (UniProt P33981); assay: Inhibition of TTK at 10 uM; conditions: values are per cent of control
[8] = test system: eIF-2-alpha kinase GCN2 (Homo sapiens), Q9P2K8 [S808G]; assay: Inhibition of GCN2 Domain2 S808G mutant at 10 uM; conditions: values are per cent of control
[9] = biological target: Dual specificity mitogen-activated protein kinase kinase 4 (Homo sapiens) (UniProt P45985); assay: Inhibition of MEK4 at 10 uM; conditions: values are per cent of control
[10] = biological target: Dual specificity tyrosine-phosphorylation-regulated kinase 1A (Homo sapiens) (UniProt Q13627); assay: Inhibition of DYRK1A at 10 uM; conditions: values are per cent of control
[11] = biological target: Ephrin type-A receptor 4 (Homo sapiens) (UniProt P54764); assay: Inhibition of EPHA4 at 10 uM; conditions: values are per cent of control
[12] = biological target: Cyclin-dependent kinase 11B (Homo sapiens) (UniProt P21127); assay: Inhibition of CDC2L1 at 10 uM; values are per cent of control
[13] = biological target: TRAF2 and NCK-interacting protein kinase (Homo sapiens) (UniProt Q9UKE5); assay: Inhibition of TNIK at 10 uM; conditions: values are per cent of control
[14] = biological target: Bone morphogenetic protein receptor type-1A (Homo sapiens) (UniProt P36894); assay: Inhibition of BMPR1A at 10 uM; conditions: values are per cent of control
[15] = biological target: Mitogen-activated protein kinase kinase kinase 9 (Homo sapiens) (UniProt P80192); assay: Inhibition of MLK1 at 10 uM
[16] = biological target: Protein kinase C iota type (Homo sapiens) (UniProt P41743); assay: Inhibition of PRKCI at 10 uM
[17] = biological target: Phosphatidylinositol 5-phosphate 4-kinase type-2 gamma (Homo sapiens) (UniProt Q8TBX8); assay: Inhibition of PIP5K2C at 10 uM
[18] = biological target: CDK4/Cyclin D3 (Homo sapiens) (UniProt P11802+P30281); assay: Inhibition of CDK4/cyclin D3 at 10 uM; values are per cent of control
[19] = biological target: Cyclin-dependent kinase 17 (Homo sapiens) (UniProt Q00537); assay: Inhibition of PCTK2 at 10 uM; conditions: values are per cent of control
[20] = biological target: Dual specificity mitogen-activated protein kinase kinase 1 (Homo sapiens) (UniProt Q02750); assay: Inhibition of MEK1 at 10 uM; conditions: values are per cent of control
[21] = biological target: BMP-2-inducible protein kinase (Homo sapiens) (UniProt Q9NSY1); assay: Inhibition of BIKE at 10 uM; conditions: values are per cent of control
[22] = biological target: Myotonin-protein kinase (Homo sapiens) (UniProt Q09013); assay: Inhibition of DMPK at 10 uM; conditions: values are per cent of control
[23] = biological target: High affinity nerve growth factor receptor (Homo sapiens) (UniProt P04629); assay: Inhibition of TRKA at 10 uM; values are per cent of control
[24] = biological target: Ephrin type-B receptor 3 (Homo sapiens) (UniProt P54753); assay: Inhibition of EPHB3 at 10 uM; conditions: values are per cent of control
[25] = biological target: Tyrosine-protein kinase ABL1 (Homo sapiens) (UniProt P00519); assay: Inhibition of non phosphorylated ABL1 at 10 uM; conditions: values are per cent of control
[26] = biological target: Casein kinase I isoform epsilon (Homo sapiens) (UniProt P49674); assay: Inhibition of CSNK1E at 10 uM; values are per cent of control
[27] = biological target: cGMP-dependent protein kinase 1 (Homo sapiens) (UniProt Q13976); assay: Inhibition of PRKG1 at 10 uM; conditions: values are per cent of control
[28] = biological target: Insulin receptor (Homo sapiens) (UniProt P06213); assay: Inhibition of INSR at 10 uM; conditions: values are per cent of control
[29] = biological target: Serine/threonine-protein kinase mTOR (Homo sapiens) (UniProt P42345); assay: Inhibition of MTOR at 10 uM; values are per cent of control
[30] = biological target: Mitogen-activated protein kinase kinase kinase kinase 1 (Homo sapiens) (UniProt Q92918); assay: Inhibition of HPK1 at 10 uM; conditions: values are per cent of control
[31] = biological target: Activated CDC42 kinase 1 (Homo sapiens) (UniProt Q07912); assay: Inhibition of TNK2 at 10 uM; conditions: values are per cent of control
[32] = biological target: Proto-oncogene tyrosine-protein kinase ROS (Homo sapiens) (UniProt P08922); assay: Inhibition of ROS1 at 10 uM
[33] = biological target: Death-associated protein kinase 3 (Homo sapiens) (UniProt O43293); assay: Inhibition of DAPK3 at 10 uM; conditions: values are per cent of control
[34] = biological target: Transient receptor potential cation channel subfamily M member 6 (Homo sapiens) (UniProt Q9BX84); assay: Inhibition of TRPM6 at 10 uM; conditions: values are per cent of control
[35] = biological target: Activin receptor type-1-like (Homo sapiens) (UniProt P37023); assay: Inhibition of ACVRL1 at 10 uM; conditions: values are per cent of control
[36] = biological target: Cyclin-G-associated kinase (Homo sapiens) (UniProt O14976); assay: Inhibition of GAK at 10 uM; conditions: values are per cent of control
[37] = biological target: Serine/threonine-protein kinase RIO3 (Homo sapiens) (UniProt O14730); assay: Inhibition of RIOK3 at 10 uM
[38] = biological target: Serine/threonine-protein kinase BRSK2 (Homo sapiens) (UniProt Q8IWQ3); assay: Inhibition of BRSK2 at 10 uM; values are per cent of control
[39] = biological target: Serine/threonine-protein kinase 24 (Homo sapiens) (UniProt Q9Y6E0); assay: Inhibition of MST3 at 10 uM
[40] = biological target: Non-receptor tyrosine-protein kinase TNK1 (Homo sapiens) (UniProt Q13470); assay: Inhibition of TNK1 at 10 uM; conditions: values are per cent of control
[41] = biological target: Serine/threonine-protein kinase MRCK alpha (Homo sapiens) (UniProt Q5VT25); assay: Inhibition of MRCKA at 10 uM
[42] = test system: Tyrosine-protein kinase ABL1 (Homo sapiens), P00519 [H396P]; assay: Inhibition of non phosphorylated ABL1 H396P mutant at 10 uM; conditions: values are per cent of control

Sequence of Dual specificity protein kinase TTK (Homo sapiens) (P33981 whole entry, the tested form may be a part): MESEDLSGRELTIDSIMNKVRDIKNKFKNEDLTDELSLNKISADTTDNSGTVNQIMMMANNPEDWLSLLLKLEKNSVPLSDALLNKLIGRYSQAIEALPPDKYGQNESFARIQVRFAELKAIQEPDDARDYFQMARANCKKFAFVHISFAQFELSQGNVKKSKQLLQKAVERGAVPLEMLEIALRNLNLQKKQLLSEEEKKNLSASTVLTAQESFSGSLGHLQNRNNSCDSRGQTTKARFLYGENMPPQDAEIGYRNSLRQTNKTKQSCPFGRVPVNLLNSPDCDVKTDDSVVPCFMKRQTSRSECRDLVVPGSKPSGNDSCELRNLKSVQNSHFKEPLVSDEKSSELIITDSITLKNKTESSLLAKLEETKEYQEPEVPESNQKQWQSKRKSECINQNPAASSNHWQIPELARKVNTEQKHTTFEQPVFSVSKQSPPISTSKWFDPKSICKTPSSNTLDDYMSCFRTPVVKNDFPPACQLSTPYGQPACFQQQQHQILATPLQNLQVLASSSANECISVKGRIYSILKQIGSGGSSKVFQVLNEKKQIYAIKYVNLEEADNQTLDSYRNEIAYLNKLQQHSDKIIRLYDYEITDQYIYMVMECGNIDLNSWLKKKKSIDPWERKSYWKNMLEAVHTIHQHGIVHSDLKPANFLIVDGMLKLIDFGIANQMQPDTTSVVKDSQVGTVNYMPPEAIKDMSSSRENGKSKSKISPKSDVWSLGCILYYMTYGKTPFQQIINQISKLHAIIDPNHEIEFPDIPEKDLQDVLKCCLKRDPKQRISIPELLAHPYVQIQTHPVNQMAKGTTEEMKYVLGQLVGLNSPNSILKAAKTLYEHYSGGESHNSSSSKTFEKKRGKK
Sequence of Phosphatidylinositol 5-phosphate 4-kinase type-2 gamma (Homo sapiens) (Q8TBX8 whole entry): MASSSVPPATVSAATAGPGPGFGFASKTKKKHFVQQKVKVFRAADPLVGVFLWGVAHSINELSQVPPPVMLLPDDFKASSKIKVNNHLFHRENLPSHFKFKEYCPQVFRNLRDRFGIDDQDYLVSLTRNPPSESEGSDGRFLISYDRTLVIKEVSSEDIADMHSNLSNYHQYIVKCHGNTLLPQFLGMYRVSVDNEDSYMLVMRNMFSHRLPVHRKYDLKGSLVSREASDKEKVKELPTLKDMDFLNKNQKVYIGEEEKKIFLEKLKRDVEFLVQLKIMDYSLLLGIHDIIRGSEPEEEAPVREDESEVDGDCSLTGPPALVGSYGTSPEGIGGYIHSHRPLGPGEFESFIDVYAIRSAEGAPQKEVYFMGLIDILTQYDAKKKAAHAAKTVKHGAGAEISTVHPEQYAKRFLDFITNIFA
Sequence of Serine/threonine-protein kinase BRSK2 (Homo sapiens) (Q8IWQ3 whole entry): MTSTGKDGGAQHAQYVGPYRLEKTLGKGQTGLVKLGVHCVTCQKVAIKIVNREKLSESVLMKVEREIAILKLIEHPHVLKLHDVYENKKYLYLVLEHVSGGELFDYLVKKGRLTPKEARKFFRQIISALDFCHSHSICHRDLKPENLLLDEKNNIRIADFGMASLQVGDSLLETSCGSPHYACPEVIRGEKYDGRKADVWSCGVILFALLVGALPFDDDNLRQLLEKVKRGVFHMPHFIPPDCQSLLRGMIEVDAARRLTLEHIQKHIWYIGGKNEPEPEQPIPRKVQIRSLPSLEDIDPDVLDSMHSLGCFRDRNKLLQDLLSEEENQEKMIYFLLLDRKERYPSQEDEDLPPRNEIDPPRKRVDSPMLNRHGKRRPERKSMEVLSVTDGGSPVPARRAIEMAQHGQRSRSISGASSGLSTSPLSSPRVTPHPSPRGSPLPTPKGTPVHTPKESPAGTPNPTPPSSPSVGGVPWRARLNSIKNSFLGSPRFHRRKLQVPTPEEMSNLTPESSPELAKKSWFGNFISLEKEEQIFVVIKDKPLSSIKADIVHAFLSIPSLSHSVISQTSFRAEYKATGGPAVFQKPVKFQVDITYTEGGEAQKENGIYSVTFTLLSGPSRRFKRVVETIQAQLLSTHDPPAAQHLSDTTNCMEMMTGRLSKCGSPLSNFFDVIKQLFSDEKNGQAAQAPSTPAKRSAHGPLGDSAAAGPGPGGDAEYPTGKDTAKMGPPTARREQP
Sequence of Cyclin-dependent kinase 3 (Homo sapiens) (Q00526 whole entry, looked up): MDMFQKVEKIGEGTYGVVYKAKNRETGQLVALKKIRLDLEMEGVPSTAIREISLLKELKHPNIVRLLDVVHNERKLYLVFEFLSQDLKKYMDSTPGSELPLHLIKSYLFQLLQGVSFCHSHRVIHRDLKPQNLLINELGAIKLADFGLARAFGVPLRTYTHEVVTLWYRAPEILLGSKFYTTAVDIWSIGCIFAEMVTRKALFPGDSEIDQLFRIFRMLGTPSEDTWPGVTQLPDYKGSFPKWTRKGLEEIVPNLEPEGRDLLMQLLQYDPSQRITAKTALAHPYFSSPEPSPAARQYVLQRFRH
Sequence of Mitogen-activated protein kinase kinase kinase kinase 1 (Homo sapiens) (Q92918 whole entry, looked up): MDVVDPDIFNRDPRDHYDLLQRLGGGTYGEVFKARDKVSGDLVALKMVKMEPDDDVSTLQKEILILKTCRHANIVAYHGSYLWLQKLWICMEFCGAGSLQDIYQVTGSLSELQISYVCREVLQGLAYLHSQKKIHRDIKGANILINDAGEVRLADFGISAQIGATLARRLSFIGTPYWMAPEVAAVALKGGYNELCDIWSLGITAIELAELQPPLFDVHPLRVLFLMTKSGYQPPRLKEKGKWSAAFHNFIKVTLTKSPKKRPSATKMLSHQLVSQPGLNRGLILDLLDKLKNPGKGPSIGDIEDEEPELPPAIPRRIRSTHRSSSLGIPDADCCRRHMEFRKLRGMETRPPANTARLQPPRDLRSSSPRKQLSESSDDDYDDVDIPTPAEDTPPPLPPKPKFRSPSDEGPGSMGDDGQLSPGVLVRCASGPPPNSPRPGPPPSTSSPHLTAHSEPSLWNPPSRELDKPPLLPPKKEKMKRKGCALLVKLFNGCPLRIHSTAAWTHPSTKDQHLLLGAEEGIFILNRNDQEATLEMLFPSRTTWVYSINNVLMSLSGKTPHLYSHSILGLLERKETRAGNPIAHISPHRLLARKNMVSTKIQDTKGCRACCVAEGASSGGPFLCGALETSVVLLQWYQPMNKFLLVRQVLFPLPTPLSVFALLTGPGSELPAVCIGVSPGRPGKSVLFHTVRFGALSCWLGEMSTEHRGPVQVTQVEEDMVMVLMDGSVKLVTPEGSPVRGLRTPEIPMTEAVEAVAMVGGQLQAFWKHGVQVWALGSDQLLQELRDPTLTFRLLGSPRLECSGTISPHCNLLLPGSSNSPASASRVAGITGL
Sequence of Myotonin-protein kinase (Homo sapiens) (Q09013 whole entry): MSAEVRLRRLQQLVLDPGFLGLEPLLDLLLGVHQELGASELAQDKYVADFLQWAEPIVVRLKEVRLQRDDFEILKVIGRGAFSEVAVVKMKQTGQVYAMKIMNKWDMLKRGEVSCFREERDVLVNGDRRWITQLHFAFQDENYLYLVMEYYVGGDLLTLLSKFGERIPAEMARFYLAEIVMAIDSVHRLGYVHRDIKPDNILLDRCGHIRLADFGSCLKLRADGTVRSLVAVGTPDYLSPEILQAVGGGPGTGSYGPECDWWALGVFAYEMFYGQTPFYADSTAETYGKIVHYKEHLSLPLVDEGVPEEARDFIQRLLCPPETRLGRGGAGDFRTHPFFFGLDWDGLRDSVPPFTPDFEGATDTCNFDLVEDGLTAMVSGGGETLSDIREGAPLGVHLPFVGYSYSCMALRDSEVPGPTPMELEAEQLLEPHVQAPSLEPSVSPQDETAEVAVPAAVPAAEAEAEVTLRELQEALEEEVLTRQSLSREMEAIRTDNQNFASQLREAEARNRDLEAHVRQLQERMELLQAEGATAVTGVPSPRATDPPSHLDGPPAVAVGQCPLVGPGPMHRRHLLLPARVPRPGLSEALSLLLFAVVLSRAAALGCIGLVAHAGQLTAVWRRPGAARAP
Sequence of Protein kinase C iota type (Homo sapiens) (P41743 whole entry): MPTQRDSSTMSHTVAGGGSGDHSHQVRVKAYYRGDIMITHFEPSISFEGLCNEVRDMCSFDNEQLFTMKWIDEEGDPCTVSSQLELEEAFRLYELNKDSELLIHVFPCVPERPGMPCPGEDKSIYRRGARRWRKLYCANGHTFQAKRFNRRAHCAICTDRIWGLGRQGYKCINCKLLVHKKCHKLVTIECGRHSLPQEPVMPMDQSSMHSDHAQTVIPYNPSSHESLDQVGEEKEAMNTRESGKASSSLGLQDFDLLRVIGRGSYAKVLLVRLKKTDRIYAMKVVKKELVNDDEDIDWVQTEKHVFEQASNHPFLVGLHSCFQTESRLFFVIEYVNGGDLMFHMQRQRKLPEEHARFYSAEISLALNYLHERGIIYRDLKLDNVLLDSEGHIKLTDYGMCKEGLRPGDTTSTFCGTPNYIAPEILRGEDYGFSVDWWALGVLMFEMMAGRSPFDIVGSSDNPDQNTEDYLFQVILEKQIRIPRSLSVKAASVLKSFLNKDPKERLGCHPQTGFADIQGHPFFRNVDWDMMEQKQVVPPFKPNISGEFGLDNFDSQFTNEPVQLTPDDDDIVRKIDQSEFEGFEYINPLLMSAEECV
Sequence of Non-receptor tyrosine-protein kinase TNK1 (Homo sapiens) (Q13470 whole entry): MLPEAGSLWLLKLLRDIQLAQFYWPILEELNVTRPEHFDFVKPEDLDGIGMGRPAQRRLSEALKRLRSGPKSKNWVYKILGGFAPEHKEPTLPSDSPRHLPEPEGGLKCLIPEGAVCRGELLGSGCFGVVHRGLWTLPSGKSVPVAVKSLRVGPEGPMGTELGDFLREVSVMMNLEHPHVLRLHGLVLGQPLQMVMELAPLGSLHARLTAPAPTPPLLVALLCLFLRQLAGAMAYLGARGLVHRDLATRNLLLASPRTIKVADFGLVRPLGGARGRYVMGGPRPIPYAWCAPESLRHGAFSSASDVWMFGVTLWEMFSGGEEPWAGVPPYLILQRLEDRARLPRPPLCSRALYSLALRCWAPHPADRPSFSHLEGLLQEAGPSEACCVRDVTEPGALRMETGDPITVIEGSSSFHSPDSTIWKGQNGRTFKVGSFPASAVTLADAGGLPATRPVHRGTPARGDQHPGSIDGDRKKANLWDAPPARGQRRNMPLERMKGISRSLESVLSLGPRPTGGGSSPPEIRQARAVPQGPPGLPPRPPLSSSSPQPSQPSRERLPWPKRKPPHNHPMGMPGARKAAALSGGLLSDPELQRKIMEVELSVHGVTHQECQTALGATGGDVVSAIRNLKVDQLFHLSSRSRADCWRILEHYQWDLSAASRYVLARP

CCN1CCN(Cc2ccc(NC(=O)c3ccc(C)c(C#Cc4cccnc4)c3)cc2C(F)(F)F)CC1
residual binding, % of control [1]: 0%
level, % of control [2]: 8.2%
% of control [3]: 0.45%
EC50 (BaF3): < 1 nM
inhibition [4]: 90%
level, % of control [5]: 24%
inhibition [6]: 53%
residual binding, % of control [7]: 16%
residual binding, % of control [8]: 1.3%
residual binding, % of control [9]: 43%
residual binding, % of control [10]: 60%
residual binding, % of control [11]: 0%
level, % of control [12]: 2.5%
residual binding, % of control [13]: 1.8%
residual binding, % of control [14]: 81%
inhibition [15]: 43%
inhibition [16]: 42%
inhibition [17]: 100%
level, % of control [18]: 54%
residual binding, % of control [19]: 8.2%
residual binding, % of control [20]: 100%
residual binding, % of control [21]: 59%
residual binding, % of control [22]: 100%
level, % of control [23]: 0.35%
residual binding, % of control [24]: 0.25%
residual binding, % of control [25]: 0%
level, % of control [26]: 48%
residual binding, % of control [27]: 100%
residual binding, % of control [28]: 58%
level, % of control [29]: 92%
residual binding, % of control [30]: 0.4%
residual binding, % of control [31]: 11%
inhibition [32]: 46%
residual binding, % of control [33]: 100%
residual binding, % of control [34]: 49%
residual binding, % of control [35]: 100%
residual binding, % of control [36]: 7.4%
inhibition [37]: 70%
level, % of control [38]: 81%
inhibition [39]: 2.8%
residual binding, % of control [40]: 0%
inhibition [41]: 87%
residual binding, % of control [42]: 0%

CCN1CCN(Cc2ccc(NC(=O)c3ccc(C)c(C#Cc4cnc5[nH]ccc5c4)c3)cc2C(F)(F)F)CC1
residual binding, % of control [1]: 0.1%
level, % of control [2]: 18%
% of control [3]: 0.25%
EC50 (BaF3): < 1 nM
inhibition [4]: 73%
level, % of control [5]: 32%
inhibition [6]: 49%
residual binding, % of control [7]: 2%
residual binding, % of control [8]: 0.25%
residual binding, % of control [9]: 25%
residual binding, % of control [10]: 100%
residual binding, % of control [11]: 0.25%
level, % of control [12]: 0%
residual binding, % of control [13]: 1.6%
residual binding, % of control [14]: 53%
inhibition [15]: 1.7%
inhibition [16]: 40%
inhibition [17]: 100%
level, % of control [18]: 65%
residual binding, % of control [19]: 3.7%
residual binding, % of control [20]: 82%
residual binding, % of control [21]: 30%
residual binding, % of control [22]: 27%
level, % of control [23]: 0.3%
residual binding, % of control [24]: 2.7%
residual binding, % of control [25]: 0.1%
level, % of control [26]: 26%
residual binding, % of control [27]: 100%
residual binding, % of control [28]: 53%
level, % of control [29]: 88%
residual binding, % of control [30]: 0.05%
residual binding, % of control [31]: 0.6%
inhibition [32]: 34%
residual binding, % of control [33]: 96%
residual binding, % of control [34]: 64%
residual binding, % of control [35]: 100%
residual binding, % of control [36]: 2%
inhibition [37]: 38%
level, % of control [38]: 90%
inhibition [39]: 3.6%
residual binding, % of control [40]: 0.8%
inhibition [41]: 73%
residual binding, % of control [42]: 0.05%
